What was measured:
Type in all cases: in vivo
serum cholesterol [1] = assay: Cholesterol lowering activity in the rat (high cholesterol diet); settings: po, 168 h, p.o., 7 consecutive days, read-out: daily dose that significantly lowers serum cholesterol
Description: Cholesterol lowering activity is determined in the rat as follows:
(§1) Male Sprague-Dawley rats (230-250 g) (Taconic Farms) are maintained ad libium on water and a high cholesterol diet (1.5% cholesterol and 0.5% cholic acid) for two weeks prior to and during the 7-day treatment period. Groups of animals are treated orally by gavage with the vehicle alone or with test compound for 7 consecutive days. After the host dose, animals are fasted for 18 hours and blood is collected. Blood samples are centrifuged at 2500 rpm for 10 minutes to prepare plasma for total cholesterol determination as well as LDL and HDL cholesterol concentrations. HDL values are determined after LDL/VLDL precipitation (Warnick and Albers, 1978). All samples are analyzed enzymatically for cholesterol with a diagnostic reagent kit (Sigma Chemical Co., St. Louis, MO). The analysis is performed on a Bio-Mek automated work station. LDL/VLDL fractions are precipitated in the following manner: 0.35 ml of plasma is aliquoted into Eppendorf tubes to which 12 μl of 2M manganese chloride, 11.2 μl of sodium heparin (Porcine Intestinal, 5000 units/ml), and 8.3 μl of normal saline are added. The samples are vortexed and are placed on ice for 15 minutes, then centrifuged at 4° C. for 10 minutes at 1300 rpm and the supernatant is enzymatically analyzed for cholesterol. […]

serum cholesterol [2] = assay: Cholesterol-lowering activity in normocholesterolemic dogs; settings: Canis lupus familiaris, po, 120 h, dog, p.o., 5 days, regular chow, read-out: daily dose that significantly lowers serum cholesterol
Description: as §1, with “LDL/VLDL fractions are precipitated in the following manner: 0.35 ml of plasma is aliquoted into Eppendorf tubes to which 12 μl of 2M manganese chloride, 11.2 μl of sodium heparin (Porcine Intestinal, 5000 units/ml), and 8.3 μl of normal saline are added.” left out
(§2) Cholesterol-lowering activity can also be evaluated in normocholesterolemic dogs fed regular chow following the procedure described above, by administration of test compound orally for 5 days; also in normolipomic cynomolgus monkeys.

serum cholesterol [3] = assay: Cholesterol-lowering activity in normolipomic cynomolgus monkeys; settings: Macaca fascicularis, po, monkey, p.o., read-out: daily dose that significantly lowers serum cholesterol
Description: as §1, with “LDL/VLDL fractions are precipitated in the following manner: 0.35 ml of plasma is aliquoted into Eppendorf tubes to which 12 μl of 2M manganese chloride, 11.2 μl of sodium heparin (Porcine Intestinal, 5000 units/ml), and 8.3 μl of normal saline are added.” left out
as §2

Structure (SMILES) | minimal effective dose (serum cholesterol [1]) [mg/kg/day] | minimal effective dose (serum cholesterol [2]) [mg/kg/day] | minimal effective dose (serum cholesterol [3]) [mg/kg/day]
CCOC(=O)C(=O)Nc1cc(C)c(Oc2ccc(O)c(C(O)c3ccc(F)cc3)c2)c(C)c1 (centres unmarked) [ethyl N-[4-[3'-[(4-fluorophenyl) hydroxymethyl]-4'-hydroxyphenoxy]-3,5-dimethylphenyl]oxamate] | ~0.005 | ~0.01 | ~0.001
Cc1cc(NC(=O)C(=O)O)cc(C)c1Oc1ccc(O)c(C(C)C)c1 [N-[3,5-dimethyl-4-(4'-hydroxy-3'-isopropylphenoxy)-phenyl]oxamic acid] | ~0.02 | ~0.03 | –

— patent publication US5401772A, “Heteroacetic acid derivatives” (Ciba-Geigy Corporation, priority 1993, dated 1995)
